SMILES strings stand for the structures. Entries after “also recorded” stand apart in the source; their conditions may differ.

One test has as its system human A2BAR. The following applies: at 1 mM, human fibroblasts; cited from earlier work.
Test [1] has as its system mouse chronic constriction injury (CCI) model. The following applies: same dose (3 μmol/kg po); cited from earlier work.
Test [2] has as its target T1, hA3AR (Homo sapiens, UniProt P0DMS8).
T1 sequence (P0DMS8 1-318): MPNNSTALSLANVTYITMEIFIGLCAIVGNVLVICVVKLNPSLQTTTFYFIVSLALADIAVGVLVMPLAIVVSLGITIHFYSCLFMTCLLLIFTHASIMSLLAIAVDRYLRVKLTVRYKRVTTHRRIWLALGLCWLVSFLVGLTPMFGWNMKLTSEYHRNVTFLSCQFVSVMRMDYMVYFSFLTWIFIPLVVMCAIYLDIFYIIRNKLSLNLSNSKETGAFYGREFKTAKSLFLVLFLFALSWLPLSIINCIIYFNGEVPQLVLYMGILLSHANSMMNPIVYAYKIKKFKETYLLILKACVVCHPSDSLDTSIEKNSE
The test can be described thus: Radioligand binding at hA3AR. The following applies: ratio of hA3AR Ki.

A further test concerns the target T2, mA3AR (Mus musculus, UniProt Q61618).
T2 sequence (Q61618 1-319): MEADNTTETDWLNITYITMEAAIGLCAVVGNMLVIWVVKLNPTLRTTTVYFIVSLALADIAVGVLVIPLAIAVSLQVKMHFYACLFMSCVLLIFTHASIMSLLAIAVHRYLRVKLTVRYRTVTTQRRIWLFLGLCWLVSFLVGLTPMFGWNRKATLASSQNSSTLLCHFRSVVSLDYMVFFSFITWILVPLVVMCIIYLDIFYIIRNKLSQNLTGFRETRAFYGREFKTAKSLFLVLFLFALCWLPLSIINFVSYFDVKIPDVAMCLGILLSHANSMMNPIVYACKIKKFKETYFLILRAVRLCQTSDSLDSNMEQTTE
Type of test: cell-based. Particulars: compared to reference full agonist 55.

The test system of test [3] is mouse chronic constriction injury (CCI) model. The test can be described thus: Mouse chronic constriction injury. It counts as in vivo. Particulars: po, 3 μmol/kg.
Test [4] addresses human dopamine transporter (hDAT) (Homo sapiens, UniProt Q01959). In words: PDSP radioligand binding at human dopamine transporter. Particulars: at 10 μM, [3H] tropane radioligand.
A short description of test [5]: PDSP broad off-target screen of receptors and channels. Type of test: binding. Particulars: PDSP screen of diverse receptors.
Another test deals with T3, hA1AR (Homo sapiens, UniProt P30542).
T3 sequence (P30542 1-326): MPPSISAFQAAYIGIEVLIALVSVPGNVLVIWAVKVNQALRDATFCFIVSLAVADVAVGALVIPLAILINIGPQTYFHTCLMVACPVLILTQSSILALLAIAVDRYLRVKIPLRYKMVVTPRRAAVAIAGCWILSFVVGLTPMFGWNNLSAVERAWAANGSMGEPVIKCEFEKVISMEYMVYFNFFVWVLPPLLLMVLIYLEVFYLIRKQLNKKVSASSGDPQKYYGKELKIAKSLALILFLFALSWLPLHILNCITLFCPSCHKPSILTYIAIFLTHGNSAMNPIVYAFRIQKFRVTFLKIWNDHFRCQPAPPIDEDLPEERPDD
In words: Radioligand binding at hA1AR.

Another test has as its target hA2AAR (Homo sapiens, UniProt P29274). The test can be described thus: Radioligand binding at hA2AAR.
Test [6] addresses T1, hA3AR. It counts as cell-based. Particulars: relative to 1 at 10 μM, CHO cells.
Test [7] relates to canine coronary artery A2AAR. The following applies: activation of canine coronary artery A2AAR; cited from earlier work.
Another test relates to adenosine deaminase. The following applies: cited from earlier work.

Sequence of hA2AAR (P29274 whole entry): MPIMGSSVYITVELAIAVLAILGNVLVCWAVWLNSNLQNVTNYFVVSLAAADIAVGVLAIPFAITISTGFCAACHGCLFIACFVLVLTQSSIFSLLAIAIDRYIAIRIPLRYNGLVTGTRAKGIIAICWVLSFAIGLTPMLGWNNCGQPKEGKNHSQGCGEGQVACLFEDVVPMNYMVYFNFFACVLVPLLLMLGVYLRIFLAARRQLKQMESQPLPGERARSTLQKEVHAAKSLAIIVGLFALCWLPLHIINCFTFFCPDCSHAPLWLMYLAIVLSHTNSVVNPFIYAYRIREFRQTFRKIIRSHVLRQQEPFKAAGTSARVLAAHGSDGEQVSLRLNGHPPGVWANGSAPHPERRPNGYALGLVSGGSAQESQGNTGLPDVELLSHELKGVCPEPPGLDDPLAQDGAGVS
Sequence of human dopamine transporter (hDAT) (Q01959 whole entry): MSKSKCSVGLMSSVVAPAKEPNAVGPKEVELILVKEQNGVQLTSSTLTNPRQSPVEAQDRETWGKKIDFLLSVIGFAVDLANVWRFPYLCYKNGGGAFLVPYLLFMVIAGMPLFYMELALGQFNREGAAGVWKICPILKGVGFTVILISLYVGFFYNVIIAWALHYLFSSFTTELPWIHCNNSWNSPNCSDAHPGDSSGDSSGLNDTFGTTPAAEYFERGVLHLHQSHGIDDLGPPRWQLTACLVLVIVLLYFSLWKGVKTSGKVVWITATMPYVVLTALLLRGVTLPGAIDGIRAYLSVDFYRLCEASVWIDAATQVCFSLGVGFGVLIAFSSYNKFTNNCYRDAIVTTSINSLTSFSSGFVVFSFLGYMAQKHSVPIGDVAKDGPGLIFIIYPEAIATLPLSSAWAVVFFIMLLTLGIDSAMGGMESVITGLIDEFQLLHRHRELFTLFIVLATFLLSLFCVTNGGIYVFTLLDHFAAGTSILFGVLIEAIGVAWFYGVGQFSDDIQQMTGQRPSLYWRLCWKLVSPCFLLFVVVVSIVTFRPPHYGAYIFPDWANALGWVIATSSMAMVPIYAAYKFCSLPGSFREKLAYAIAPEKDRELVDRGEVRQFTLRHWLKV

Consider `Cc1ncnc2c1ncn2[C@@H]1O[C@H](CO)[C@@H](O)[C@H]1O` [6-methylpurine-9-riboside], for which, in the test with human A2BAR, the “Efficacy relative to 10 μM adenosine” value was 6%.
With `CNC(=O)[C@@]12C[C@@H]1[C@@H](n1cnc3c(NCc4cccc(Cl)c4)nc(C#Cc4ccc(F)c(F)c4)nc31)[C@H](O)[C@@H]2O` [Compound 8], in test [1], the “Protection against mechanoallodynia at 1 h” value was 100%.
With `CNC(=O)[C@@]12C[C@@H]1[C@@H](n1cnc3c(/C=C(\O)c4ccccc4)nc(C#Cc4ccccc4)nc31)[C@H](O)[C@@H]2O` [Compound 12, (1S,2R,3S,4R,5S)-2,3-Dihydroxy-4-(6-((Z)-2-hydroxy-2-phenylvinyl)-2-(phenylethynyl)-9H-purin-9-yl)-N-methylbicyclo[3.1.0]hexane-1-carboxamide], the “Fold more potent at hA3AR than C2–Cl derivative 11b” value on hA3AR [2] is given as 15 fold. Further, the mA3AR agonist efficacy entry at mA3AR is “full agonists”. In test [3] (day 7), the “Reversal of mechanoallodynia (neuropathic pain)” value (shortened to “Reversal of mechanoallodynia”) is listed as “efficacious in reducing pain” and the “Reversal of the pain” value is reported as below 100%.
As for `CNC(=O)[C@@]12C[C@@H]1[C@@H](n1cnc3c(C)nc(C#Cc4ccccc4)nc31)[C@H](O)[C@@H]2O` [Compound 15], in test [3] (day 7), the “Reversal of mechanoallodynia” value is listed as “efficacious in reducing pain” and the “Reversal of the pain” value was below 100%. Further, the “Enhancement of hDAT radioligand binding” value in test [4] is “roughly 200%”. Moreover, in test [5], the Off-target interactions entry is reported as “no significant binding inhibition”.
By Ki is commonly meant a measure of affinity in units of concentration, obtained from inhibition or displacement. In the case of `CNC(=O)[C@@]12C[C@@H]1[C@@H](n1cnc3c(C)nc(C#Cc4ccc(Cl)s4)nc31)[C@H](O)[C@@H]2O` [Compound 19, (1S,2R,3S,4R,5S)-4-(2-((5-Chlorothiophen-2-yl)ethynyl)-6-methyl-9H-purin-9-yl)-2,3-dihydroxy-N-methylbicyclo[3.1.0]hexane-1-carboxamide], the Ki on hA1AR and at hA2AAR was above 10 µM each time. Besides, at hA3AR [6], the hA3AR agonist efficacy entry is on record as “potent, full agonists”.
In the case of `CNC(=O)[C@@]12C[C@@H]1[C@@H](n1cnc3cnc(C#Cc4ccc(Cl)s4)nc31)[C@H](O)[C@@H]2O` [Compound 21, (1S,2R,3S,4R,5S)-4-(2-((5-Chlorothiophen-2-yl)ethynyl)-9H-purin-9-yl)-2,3-dihydroxy-N-methylbicyclo[3.1.0]hexane-1-carboxamide], the Ki at hA1AR and at hA2AAR was above 10 µM in each case. For the same compound, the hA3AR agonist efficacy result on hA3AR [6] was “potent, full agonists”. For the same compound, the Duration of action result in test [3] (day 7) is reported as “at least 5 h”. The “Reversal of mechanoallodynia” value in test [3] (day 7) is “clearly more efficacious and longer lasting; also recorded: completely reversing mechanoallodynia”; in test [3] (day 7, listed as MRS7220), “completely reversed”. In test [5], the Off-target interactions entry is given as “no off-target interactions”.
As for `OC[C@H]1O[C@@H](n2cnc3cncnc32)[C@H](O)[C@@H]1O` [Compound 56, purine-9-riboside], the “Efficacy relative to 10 μM adenosine” value in the test on human A2BAR is given as 15%. Besides, in test [7], the “Fold less potent than adenosine” value was 40 fold. The Adenosine deaminase inhibition result in the test on adenosine deaminase is “weak inhibitor”.
